Assay results as given in patent publication US20250382301A1 (Arizona Board of Regents on Behalf of the University of …, priority 2022, published 2025).

Each compound was assayed on WNT signaling (TopGFP reporter in Human Colonic Epithelial Cells (HCEC)) (assay: WNT Reporter Assay (TopGFP reporter)). Conditions: Homo sapiens, stimulated with 10 μM CHIR99021, 24 hours, TopGFP/mCherry.
Assay type: cell-based
Method: WNT Reporter Assay: Human Colonic Epithelial Cells (HCEC) were cultured using 1×DMEM supplemented with 1% penicillin/streptomycin, 1% Glutamax, and 10% fetal bovine serum in 5% CO2 at 37° C. These cells were previously engineered to express the TopGFP reporter (Addgene #24304) using second generation lentiviral techniques. For the Wnt reporter assay, cells were seeded at 2000 cells per well in a 384-well black screenstar imaging microplates (Greiner #781866) and allowed to adhere overnight. The following day cells were stimulated to induce the Wnt pathway using 10 μM CHIR99021 (Selleck #S1263). […] Cells were incubated for 24 hours before fixing for 30 minutes with 4% paraformaldehyde/sucrose solution. Cells were permeabilized with 0.1% triton-x in PBS for 10 minutes and stained for DAPI for 30 minutes. Plates were imaged on a Nikon Ti2 Eclipse fluorescent microscope for DAPI, GFP, and mCherry. Using Nikon Elements software for analysis, nuclei were segmented based on DAPI and mean object intensity per cell for both TopGFP and the internal control (mCherry) was measured. To calculate the amount of Wnt activity, we took the mean intensity of TopGFP and divided it by the mean intensity of mCherry per cell to normalize individual cells. Curves and EC50s were plotted and calculated using Graphpad Prism software.

EC50 [nM]	Compound
100 to 1000	Nc1cc(-c2ccc3ncnc(N4CCN(c5ccncn5)CC4)c3c2)ccn1 [Compound 9, 4-(4-(4-(pyrimidin-4-yl)piperazin-1-yl)quinazolin-6-yl)pyridin-2-amine]
100 to 1000	Nc1cc(-c2ccc3nccc(N4CCN(c5ccccc5F)CC4)c3c2)ccn1 [Compound 33, 4-(4-(4-(2-fluorophenyl)piperazin-1-yl)quinolin-6-yl)pyridin-2-amine]
100 to 1000	Nc1cc(-c2ccc3ncnc(N4CCN(c5ccccc5)C(=O)C4)c3c2)ccn1 [Compound 38, 4-(6-(2-aminopyridin-4-yl)quinazolin-4-yl)-1-phenylpiperazin-2-one]
< 100	Nc1cc(-c2ccc3nccc(N4CCN(c5ccccc5)CC4)c3c2)ccn1 [Compound 25, 4-(4-(4-phenylpiperazin-1-yl)quinolin-6-yl)pyridin-2-amine]
< 100	Fc1ccc(CN2CCCN(c3ncnc4ccc(-c5cn[nH]c5)cc34)CC2)cc1 [Compound 36, 4-(4-(4-fluorobenzyl)-1,4-diazepan-1-yl)-6-(1H-pyrazol-4-yl)quinazoline]

Same assay, conditions: stimulated with 10 μM CHIR99021, 24 hours, TopGFP/mCherry

EC50 [nM]	Compound
< 100	4-(4-(2-fluorophenyl)piperazin-1-yl)-6-(1H-pyrazol-3-yl)pyrido[3,2-d]pyrimidine [Compound 23]
